These results are taken from ChEMBL document CHEMBL2074152, “Structural determinants of substrates for the prostaglandin transporter PGT” (Mol Pharmacol, 1996).

By pKi is commonly meant −log10 of the Ki, conventionally taken in molar units.

pKi: −log10 of the molar value.

The experiment deals with Solute carrier organic anion transporter family member 2A1 (Rattus norvegicus, UniProt Q00910). Put plainly: TP_TRANSPORTER: inhibition of PGE2 uptake in PGT-expressing HeLa cells. The experiment is classed as functional, cell-based.
In turn, `CCCCC[C@H](O)/C=C/[C@H]1C=CC(=O)[C@@H]1CCCCCCC(=O)O` [PROSTAGLANDIN A1] had a pKi of 6.54. In the case of `CCCCC[C@H](O)/C=C/C1=C(CCCCCCC(=O)O)C(=O)CC1` [PROSTAGLANDIN B1] it was 7.15. Compound `CCCCC[C@H](O)/C=C/[C@H]1C(=O)C[C@H](O)[C@@H]1CCCCCCC(=O)O` [PROSTAGLANDIN D1] gave a pKi of 6.79. Consider `CCCCC[C@H](O)/C=C/[C@@H]1[C@@H](C/C=C\CCCC(=O)O)[C@@H]2C[C@H]1OO2` [PROSTAGLANDIN H2], for which the pKi was 7.42.
